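Exposure lasted 48 hours, with cells grown in 96-well plates and compounds tested at five concentrations. GI50 = concentration required for 50% inhibition of growth. TGI: concentration producing complete growth inhibition.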
Legend:
Test in all cases: NCI anticancer screen, dose series, 48 h
[1] = system: 786-0 renal
[2] = system: A498 renal
[3] = system: A549 NSCLC
[4] = system: ACHN renal
[5] = system: BT-549 breast
[6] = system: CAKI-1 renal
[7] = system: CCRF-CEM leukemia
[8] = system: COLO 205 colon
[9] = system: DU-145 prostate
[10] = system: HCC-2998 colon
[11] = system: HCT-116 colon
[12] = system: HCT-15 colon
[13] = system: HL-60(TB) leukemia
[14] = system: HOP-62 NSCLC
[15] = system: HOP-92 NSCLC
[16] = system: HS 578T breast
[17] = system: HT29 colon
[18] = system: IGROV1 ovarian
[19] = system: K-562 leukemia
[20] = system: KM12 colon
[21] = system: LOX IMVI melanoma
[22] = system: M14 melanoma
[23] = system: MCF7 breast
[24] = system: MDA-MB-231 breast
[25] = system: MDA-MB-435
[26] = system: MOLT-4 leukemia
[27] = system: NCI-H226 lung
[28] = system: NCI-H23 lung
[29] = system: NCI-H460 lung
[30] = system: NCI-H522 lung
[31] = system: NCI/ADR-RES ovarian
[32] = system: OVCAR-3 ovarian
[33] = system: OVCAR-4 ovarian
[34] = system: OVCAR-5 ovarian
[35] = system: OVCAR-8 ovarian
[36] = system: PC-3 prostate
[37] = system: RPMI-8226 leukemia
[38] = system: RXF 393 renal
[39] = system: SF-268 CNS
[40] = system: SF-539 CNS
[41] = system: SK-MEL-2 melanoma
[42] = system: SK-MEL-28 melanoma
[43] = system: SK-MEL-5 melanoma
[44] = system: SK-OV-3 ovarian
[45] = system: SN12C renal
[46] = system: SNB-75 CNS
[47] = system: SW-620 colon
[48] = system: T-47D breast
[49] = system: TK-10 renal
[50] = system: U251 CNS
[51] = system: UACC-257 melanoma
[52] = system: UACC-62 melanoma
[53] = system: UO-31 renal

## NNc1nc(-c2ccccn2)nc2sc3c(c12)CCCCCC3
[1]
  GI50: 5.65 µM
  TGI: 25.2 µM
[2]
  GI50: 1.86 µM
  TGI: 11.8 µM
[3]
  GI50: 3.18 µM
  TGI: > 100 µM
[4]
  GI50: 4.87 µM
  TGI: 63.9 µM
[5]
  GI50: 9.73 µM
  TGI: > 100 µM
[6]
  GI50: 0.575 µM
  TGI: 25.6 µM
[7]
  GI50: 4.42 µM
  TGI: > 100 µM
[8]
  GI50: 5.07 µM
  TGI: > 100 µM
[9]
  GI50: 9.48 µM
  TGI: > 100 µM
[10]
  GI50: 8.31 µM
  TGI: > 100 µM
[11]
  GI50: 3.53 µM
  TGI: > 100 µM
[12]
  GI50: 1.12 µM
  TGI: > 100 µM
[13]
  GI50: 4.46 µM
  TGI: 36.3 µM
[14]
  GI50: 8.57 µM
  TGI: > 100 µM
[15]
  GI50: 3.54 µM
  TGI: 48.6 µM
[16]
  GI50: 11 µM
  TGI: > 100 µM
[17]
  GI50: 5.53 µM
  TGI: > 100 µM
[18]
  GI50: 4.21 µM
  TGI: > 100 µM
[19]
  GI50: 3.78 µM
  TGI: > 100 µM
[20]
  GI50: 6.46 µM
  TGI: 99 µM
[21]
  GI50: 6.17 µM
  TGI: > 100 µM
[22]
  GI50: 5.46 µM
  TGI: 46.8 µM
[23]
  GI50: 3.84 µM
  TGI: > 100 µM
[24]
  GI50: 12.7 µM
  TGI: > 100 µM
[25]
  GI50: 5.17 µM
  TGI: > 100 µM
[26]
  GI50: 3.67 µM
  TGI: 22.7 µM
[27]
  GI50: 10.3 µM
  TGI: 89.1 µM
[28]
  GI50: 9 µM
  TGI: > 100 µM
[29]
  GI50: 4.22 µM
  TGI: 57.5 µM
[30]
  GI50: 12.1 µM
  TGI: 68.3 µM
[31]
  GI50: 0.453 µM
  TGI: 52.3 µM
[32]
  GI50: 5.31 µM
  TGI: 93.7 µM
[33]
  GI50: 10.4 µM
  TGI: > 100 µM
[34]
  GI50: 8.61 µM
  TGI: > 100 µM
[35]
  GI50: 4.39 µM
  TGI: > 100 µM
[36]
  GI50: 3.98 µM
  TGI: > 100 µM
[37]
  GI50: 3.25 µM
  TGI: 24.5 µM
[38]
  GI50: 6.8 µM
  TGI: 43 µM
[39]
  GI50: 7.25 µM
  TGI: > 100 µM
[40]
  GI50: 10.9 µM
  TGI: > 100 µM
[41]
  GI50: 14.4 µM
  TGI: > 100 µM
[42]
  GI50: 14.9 µM
  TGI: > 100 µM
[43]
  GI50: 3.16 µM
  TGI: 24.1 µM
[44]
  GI50: 30.9 µM
  TGI: > 100 µM
[45]
  GI50: 6.36 µM
  TGI: > 100 µM
[46]
  GI50: 12.6 µM
  TGI: 95.9 µM
[47]
  GI50: 4.53 µM
  TGI: > 100 µM
[48]
  GI50: 5.01 µM
  TGI: > 100 µM
[49]
  GI50: 9.16 µM
  TGI: > 100 µM
[50]
  GI50: 4.5 µM
  TGI: 49.6 µM
[51]
  GI50: 6.61 µM
  TGI: 77.4 µM
[52]
  GI50: 5.96 µM
  TGI: 48.8 µM
[53]
  GI50: 1.03 µM
  TGI: 18.7 µM
